Data as given in PubChem BioAssay (NCI).
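Growth conditions: 96-well plates. Treatment: test compound, 48 hours, 5 concentrations. Analysis: linear interpolation between bracketing concentrations; unreached endpoints set to highest concentration. GI50 is the concentration that inhibits growth by half. TGI: concentration producing complete growth inhibition.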

How the values were obtained:
Assay in all cases: NCI-60 cell line screen, 48 h
CAKI-1 renal = test system: CAKI-1 renal
RXF 393 renal = test system: RXF 393 renal
T-47D breast = test system: T-47D breast
SF-295 CNS = test system: SF-295 CNS
KM12 colon = test system: KM12 colon
SF-539 CNS = test system: SF-539 CNS
OVCAR-5 ovarian = test system: OVCAR-5 ovarian
HCT-116 colon = test system: HCT-116 colon
OVCAR-3 ovarian = test system: OVCAR-3 ovarian
SK-OV-3 ovarian = test system: SK-OV-3 ovarian

Structure (SMILES) | TGI (CAKI-1 renal) | TGI (RXF 393 renal) | TGI (T-47D breast) | TGI (SF-295 CNS) | TGI (KM12 colon) | TGI (SF-539 CNS) | TGI (OVCAR-5 ovarian) | TGI (HCT-116 colon) | TGI (OVCAR-3 ovarian) | TGI (SK-OV-3 ovarian) | GI50 (CAKI-1 renal) | GI50 (RXF 393 renal) | GI50 (T-47D breast) | GI50 (SF-295 CNS) | GI50 (KM12 colon) | GI50 (SF-539 CNS) | GI50 (OVCAR-5 ovarian) | GI50 (HCT-116 colon) | GI50 (OVCAR-3 ovarian) | GI50 (SK-OV-3 ovarian)
C=C1C(=O)O[C@@H]2/C=C(/C)[C@@H](OC(C)=O)C[C@@H](O)/C(C)=C\[C@@H](OC(=O)[C@]3(C)O[C@@H]3C)[C@@H]12 | 11.1 µM | 29.3 µM | 24.1 µM | > 100 µM | 36.3 µM | 46.5 µM | 32.6 µM | 13.6 µM | 23.8 µM | > 100 µM |  |  |  |  |  |  |  |  |  | 
c1ccc2c(N=NSc3ncnc4nc[nH]c34)c3ccccc3nc2c1 | 7.07 µM | 2.87 µM | 11 µM | 9.63 µM | 10.7 µM | 3.55 µM | 6.3 µM | 11.6 µM | 8.78 µM | 14.2 µM | 1.76 µM | 0.967 µM | 1.44 µM | 1.13 µM | 1.61 µM | 1.1 µM | 1.89 µM | 0.53 µM | 2.43 µM | 1.38 µM
CCOC(=O)N1CCC(N=C2CSc3nnc(-c4cc(C(F)(F)F)cc(C(F)(F)F)c4)n3N2)CC1 | 5.97 µM | 3.08 µM | 6.82 µM | 3.08 µM | 3.95 µM | 3.88 µM | 4 µM | 3.7 µM | 3.59 µM | 8.71 µM | 2.04 µM | 1.57 µM | 2.6 µM | 1.51 µM | 2.04 µM | 2.06 µM | 1.95 µM | 1.9 µM | 2.01 µM | 3.21 µM
CN1C(=O)N(C)C2C1NC(=S)N2/N=C/C=C/c1ccccc1[N+](=O)[O-] (centres undefined) | > 100 µM | > 100 µM | > 100 µM | > 100 µM | > 100 µM | 8.44 µM | > 100 µM | > 100 µM | > 100 µM | > 100 µM | 1.46 µM | 2.42 µM | > 100 µM | 0.625 µM | 0.774 µM | 0.537 µM | 3.88 µM | 0.634 µM | 0.344 µM | 1.18 µM
CC1=C(CCC(C)CO)O[C@H]2C[C@H]3[C@@H]4CC[C@H]5C[C@@H](O)CC[C@]5(C)[C@H]4CC(=O)[C@]3(C)[C@@H]12 (some centres undefined) | 86.3 µM | 73.8 µM | 29.2 µM | > 49.9 µM | 30.4 µM | 72.7 µM | 71.1 µM | 47.7 µM | > 60.9 µM | 43.4 µM |  |  |  |  |  |  |  |  |  | 
COc1cccc(N2CC(O)=C(c3nc4ccccc4s3)C2=N)c1 | > 100 µM | 45.1 µM | > 100 µM | 6.09 µM | > 100 µM | 26.6 µM | > 95 µM | > 47.2 µM | 0.82 µM | 33.5 µM | 0.11 µM | 0.488 µM | 46.5 µM | 0.0744 µM | 0.234 µM | 0.451 µM |  | 0.35 µM | 0.269 µM | 0.702 µM
CC(=O)C1=C(C)N(Cc2ccccc2)C2(O)C=CC(=O)C3=C(O)c4ccccc4C(=O)C312 (centres undefined) | 6.37 µM | 17.5 µM | 7.97 µM | 27.9 µM | 26 µM | 7.09 µM | 25 µM | 3.86 µM | 3.14 µM | 42.4 µM | 2.47 µM | 3.27 µM | 2.71 µM | 12.5 µM | 9.05 µM | 2.91 µM | 6.28 µM | 1.99 µM | 1.42 µM | 18.3 µM
CCC(=O)NC1=C(Cl)C(=O)C(NC(=O)CC)=C(Cl)C1=O | 10.8 µM | 12.8 µM | 14.2 µM | > 53.8 µM | > 57.8 µM | > 58.2 µM | 40.5 µM | 17.3 µM | 9.56 µM | > 100 µM | 5.98 µM | 6.64 µM | 5.51 µM | > 39.2 µM | > 43.9 µM | > 44.4 µM | 20.6 µM | 6.89 µM | 5.14 µM | > 73.1 µM
COC(=O)[C@]1(C)CCC[C@@]2(C)C3=C(CC[C@H]12)C[C@@H](CC(OC(C)=O)OC(C)=O)[C@@H](C)C3 | 18.2 µM | 16.1 µM | 13.7 µM | 26.7 µM | 22.6 µM | 20.3 µM | 18.4 µM | 18.9 µM | 27.9 µM | > 50 µM | 8.73 µM | 7.03 µM | 4.17 µM | 11 µM | 10.1 µM | 10.7 µM | 9.89 µM | 8.21 µM | 10.7 µM | 20.7 µM
CN1CCN(Cc2ccc(NC(=O)c3cncc(C#Cc4ccc(N)nc4)c3)cc2C(F)(F)F)CC1 | 2.09 µM | 2.14 µM | 7.14 µM | 4.79 µM | 5.3 µM | 1.66 µM | 7.22 µM | 3.9 µM | 7.88 µM | 4.69 µM | 0.312 µM | 0.524 µM | 1.35 µM | 1.23 µM | 0.0227 µM | 0.501 µM | 1.38 µM | 0.596 µM | 1.72 µM | 0.693 µM
COc1cc2c(cc1OCC(=O)Nc1ccc(Cl)cc1C(=O)c1ccccc1Cl)N=CC1CCCN1C2=O (centres undefined) | 28.3 µM | 15.6 µM | 22.2 µM | 22.9 µM | 26 µM | 33.9 µM | 45.5 µM | 20.5 µM | 14.6 µM | 12 µM | 13.6 µM | 4.31 µM | 5.21 µM | 8.48 µM | 11.8 µM | 19.6 µM | 24.6 µM | 7.18 µM | 3.72 µM | 3.08 µM
O=C(Nc1cccc([N+](=O)[O-])c1)c1cccc(C(=O)Nc2cccc([N+](=O)[O-])c2)c1 | > 100 µM | 38.8 µM | > 100 µM | > 90.4 µM | > 100 µM | > 100 µM | > 100 µM | > 100 µM | > 100 µM | > 82.8 µM | > 100 µM | 14.7 µM | 56.9 µM | 23.2 µM | > 100 µM | 27.8 µM | > 100 µM | 41.9 µM | > 100 µM | 13 µM
CC(NNC(=S)N1CCN(c2ccccn2)CC1)c1nccc2ccccc12 (centres undefined) | 10.3 µM | 8.53 µM | 16.9 µM | 11.9 µM | 19 µM | 6.43 µM | 14.2 µM | 9.29 µM | 13.2 µM | 15.1 µM |  |  |  |  |  |  |  |  |  | 
